Each compound was assayed against T1, KRAS G12C 1-169, his-tagged protein, GDP-loaded (Homo sapiens, UniProt P01116, G12C) (assay: Biochemical assay: covalent modification of KRAS G12C measured by mass spectrometry (RapidFire/TOF or Q-Exactive)). Details: tested at 32 μM.
T1 construct: KRAS G12C 1-169, his-tagged protein, GDP-loaded
Format: binding
Outline: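 GDP-loaded KRAS G12C 1-169 (his-tagged, 2 μM or 0.5 μM in 20 mM Hepes, 150 mM NaCl, 1 mM MgCl2) reacted with compound at 32 μM or 8 μM final, then quenched with formic acid. Intact-protein LC-MS (RapidFire/TOF or Q-Exactive) with charge-envelope deconvolution; % modification from modified vs unmodified peak intensities.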
Also: time not given here.

SMILES	Bind %
C=CC(=O)N1CC2(CCN(c3cc(N4CCC(O)CC4)cc(-c4c(C)ccc5[nH]ncc45)c3C#N)CC2)C1 [Compound I-81, 2-(2-acryloyl-2,7-diazaspiro[3.5]nonan-7-yl)-4-(4-hydroxypiperidin-1-yl)-6-(5-methyl-1H-indazol-4-yl)benzonitrile]	+ (+ indicates binding activity greater than 0% and up to 50%)
C=CC(=O)N1CC2(CCN(c3cc(N4CCC(N5CCN(C)[C@@H](C)C5)CC4)cc(-c4c(C)ccc5[nH]ncc45)c3C#N)CC2)C1 [Compound I-82, 2-(2-acryloyl-2,7-diazaspiro[3.5]nonan-7-yl)-4-(4-((S)-3,4-dimethyl-piperazin-1-yl)piperidin-1-yl)-6-(5-methyl-1H-indazol-4-yl)benzonitrile]	+ (+ indicates binding activity greater than 0% and up to 50%)
C=CC(=O)N1CC2(CCN(c3ccc(OCCCN(C)C)c(-c4c(C)ccc5[nH]ncc45)c3C#N)CC2)C1 [Compound I-83, 6-(2-acryloyl-2,7-diazaspiro[3.5]nonan-7-yl)-3-(3-(dimethylamino)propoxy)-2-(5-methyl-1H-indazol-4-yl)benzonitrile]	+ (+ indicates binding activity greater than 0% and up to 50%)
C=CC(=O)N1CC2(CCN(c3cc(N4CCOCC4)c(OC)c(-c4c(C)ccc5[nH]ncc45)c3C#N)CC2)C1 [Compound I-84, 6-(2-acryloyl-2,7-diazaspiro[3.5]nonan-7-yl)-3-methoxy-2-(5-methyl-1H-indazol-4-yl)-4-morpholino-benzonitrile]	+ (+ indicates binding activity greater than 0% and up to 50%)
C=CC(=O)N1CC2(CCN(c3ccc(Cl)c(-c4c(C)ccc5[nH]ncc45)c3C#N)CC2)C1 [Compound I-85, 6-(2-acryloyl-2,7-diazaspiro[3.5]nonan-7-yl)-3-chloro-2-(5-methyl-1H-indazol-4-yl)benzonitrile]	+ (+ indicates binding activity greater than 0% and up to 50%)
C=CC(=O)N1CCC2(CCN(c3ccc(F)c(-c4c(C)ccc5[nH]ncc45)c3C#N)CC2)C1 [Compound I-94, 6-(2-acryloyl-2,8-diazaspiro[4.5]decan-8-yl)-3-fluoro-2-(5-methyl-1H-indazol-4-yl)benzonitrile]	+ (+ indicates binding activity greater than 0% and up to 50%)
C=CC(=O)N1CCC2(C1)CN(c1ccc(F)c(-c3c(C)ccc4[nH]ncc34)c1C#N)C2 [Compound I-95, 6-(6-acryloyl-2,6-diazaspiro[3.4]octan-2-yl)-3-fluoro-2-(5-methyl-1H-indazol-4-yl)benzonitrile]	+ (+ indicates binding activity greater than 0% and up to 50%)
C=CC(=O)N1CCC2(CC1)CN(c1ccc(F)c(-c3c(C)ccc4[nH]ncc34)c1C#N)C2 [Compound I-96, 6-(7-acryloyl-2,7-diazaspiro[3.5]nonan-2-yl)-3-fluoro-2-(5-methyl-1H-indazol-4-yl)benzonitrile]	+ (+ indicates binding activity greater than 0% and up to 50%)
C=CC(=O)N1CC2(CCN(c3cc(N4CCOCC4)c(F)c(-c4c(C)ccc5cnn(C)c45)c3C#N)CC2)C1 [Compound I-97, 6-(2-acryloyl-2,7-diazaspiro[3.5]nonan-7-yl)-2-(1,6-dimethyl-1H-indazol-7-yl)-3-fluoro-4-morpholino-benzonitrile]	+ (+ indicates binding activity greater than 0% and up to 50%)
C=CC(=O)N1CC2(CCN(c3ccc(F)c(-c4c(C)ccc5[nH]ncc45)c3)C2)C1 [Compound I-99]	++ (++ indicates binding activity from 50 to 75%)
C=CC(=O)N1CC2(CCN(c3ccc(OC4CCN(C)CC4)c(-c4c(C)ccc5[nH]ncc45)c3C#N)CC2)C1 [Compound I-100, 6-(2-acryloyl-2,7-diazaspiro[3.5]nonan-7-yl)-2-(5-methyl-1H-indazol-4-yl)-3-((1-methylpiperidin-4-yl)oxy)benzo-nitrile]	+ (+ indicates binding activity greater than 0% and up to 50%)
C=CC(=O)N1CC2(CCN(c3ccc(C#N)c(-c4c(C)ccc5[nH]ncc45)c3)C2)C1 [Compound I-101, 4-(2-acryloyl-2,6-diazaspiro[3.4]octan-6-yl)-2-(5-methyl-1H-indazol-4-yl)benzonitrile]	+ (+ indicates binding activity greater than 0% and up to 50%)
C=CC(=O)N1CC2(CCN(c3ccc(F)c(-c4c(C)ccc5[nH]ncc45)c3)CC2)C1 [Compound I-102, 1-(7-(4-fluoro-3-(5-methyl-1H-indazol-4-yl)phenyl)-2,7-diazaspiro[3.5]nonan-2-yl)prop-2-en-1-one]	+ (+ indicates binding activity greater than 0% and up to 50%)
C=CC(=O)N1CC2(CCN(c3cc(OCCCN(C)C)c(OC)c(-c4c(C)ccc5[nH]ncc45)c3)CC2)C1 [Compound I-103, 1-(7-(3-(3-(dimethylamino)propoxy)-4-methoxy-5-(5-methyl-1H-indazol-4-yl)phenyl)-2,7-diazaspiro[3.5]nonan-2-yl)prop-2-en-1-one]	++ (++ indicates binding activity from 50 to 75%)
C=CC(=O)N1CC2(CCN(c3cc(OCCCN(C)C)c(OC)c(-c4c(C)ccc5cnn(C)c45)c3C#N)CC2)C1 [Compound I-104]	+ (+ indicates binding activity greater than 0% and up to 50%)
C=CC(=O)N1CC2(CCN(c3ccc(C#N)c(-c4c(C)ccc5[nH]ncc45)c3)CC2)C1 [Compound I-105, 4-(2-acryloyl-2,7-diazaspiro[3.5]nonan-7-yl)-2-(5-methyl-1H-indazol-4-yl)benzonitrile]	+ (+ indicates binding activity greater than 0% and up to 50%)
C=CC(=O)N1CC2(CCN(c3ccc(F)c(-c4c(C)ccc5[nH]ncc45)c3C#N)CC2)C1 [Compound I-106, 6-(2-acryloyl-2,7-diazaspiro[3.5]nonan-7-yl)-3-fluoro-2-(5-methyl-1H-indazol-4-yl)benzonitrile]	+ (+ indicates binding activity greater than 0% and up to 50%)
C=CC(=O)N1CC2(CCN(c3cc(OCc4ccccn4)cc(-c4c(C)ccc5[nH]ncc45)c3)CC2)C1 [Compound I-107, 1-(7-(3-(5-methyl-1H-indazol-4-yl)-5-(pyridin-2-ylmethoxy)phenyl)-2,7-diazaspiro[3.5]nonan-2-yl)prop-2-en-1-one]	+ (+ indicates binding activity greater than 0% and up to 50%)
C=CC(=O)N1CC2(CCN(c3cc(N4CCOCC4)cc(-c4c(C)ccc5[nH]ncc45)c3C#N)CC2)C1 [Compound I-108, 2-(2-acryloyl-2,7-diazaspiro[3.5]nonan-7-yl)-6-(5-methyl-1H-indazol-4-yl)-4-morpholino-benzonitrile]	+ (+ indicates binding activity greater than 0% and up to 50%)
C=CC(=O)N1CC2(CCN(c3ccc(OC4CCN(C)CC4)c(-c4c(C)ccc5cnn(C)c45)c3C#N)CC2)C1 [Compound I-109, 6-(2-acryloyl-2,7-diazaspiro[3.5]nonan-7-yl)-2-(1,6-dimethyl-1H-indazol-7-yl)-3-((1-methylpiperidin-4-yl)oxy)benzo-nitrile]	+ (+ indicates binding activity greater than 0% and up to 50%)
C=CC(=O)N1CC2(CCN(c3ccc(F)c(-c4c(C)ccc5[nH]ncc45)c3C#N)CC2)C1 [Compound I-111, 6-(2-acryloyl-2,7-diazaspiro[3.5]nonan-7-yl)-3-fluoro-2-(5-methyl-1H-indazol-4-yl)benzonitrile]	+ (+ indicates binding activity greater than 0% and up to 50%)
C=CC(=O)N1CC2(CCN(c3ccc(C(F)(F)F)c(-c4c(C)ccc5[nH]ncc45)c3C#N)CC2)C1 [Compound I-112, 6-(2-acryloyl-2,7-diazaspiro[3.5]nonan-7-yl)-2-(5-methyl-1H-indazol-4-yl)-3-(trifluoromethyl) benzonitrile]	+ (+ indicates binding activity greater than 0% and up to 50%)
C=CC(=O)N1CC2(CCN(c3cc(N4CC(N(C)C)C4)c(F)c(-c4c(C)ccc5[nH]ncc45)c3C#N)CC2)C1 [Compound I-114, 6-(2-acryloyl-2,7-diazaspiro[3.5]nonan-7-yl)-4-(3-(dimethylamino)azetidin-1-yl)-3-fluoro-2-(5-methyl-1H-indazol-4-yl)benzonitrile]	+ (+ indicates binding activity greater than 0% and up to 50%)
C=CC(=O)N1CC2(CCN(c3ccc(Nc4ccccc4)c(-c4c(C)ccc5[nH]ncc45)c3C#N)CC2)C1 [Compound I-115, 6-(2-acryloyl-2,7-diazaspiro[3.5]nonan-7-yl)-2-(5-methyl-1H-indazol-4-yl)-3-(phenylamino) benzonitrile]	+ (+ indicates binding activity greater than 0% and up to 50%)

Same assay, conditions: tested at a concentration of 8 μM

SMILES	Bind %
C=CC(=O)N1CC2(CCN(c3cc(N4CCOCC4)c(F)c(-c4c(C)ccc5[nH]ncc45)c3C#N)CC2)C1 [Compound I-80, 6-(2-acryloyl-2,7-diazaspiro[3.5]nonan-7-yl)-3-fluoro-2-(5-methyl-1H-indazol-4-yl)-4-morpholino-benzonitrile]	+ (+ indicates binding activity greater than 0% and up to 50%)
C=CC(=O)N1CC2(CCN(c3ccc(Cl)c(-c4c(C)ccc5[nH]ncc45)c3C#N)C2)C1 [Compound I-98, 6-(2-acryloyl-2,6-diazaspiro[3.4]octan-6-yl)-3-chloro-2-(5-methyl-1H-indazol-4-yl)benzonitrile]	++ (++ indicates binding activity from 50 to 75%)
C=CC(=O)N1CC2(C1)CN(c1ccc(F)c(-c3c(C)ccc4[nH]ncc34)c1C#N)C2 [Compound I-110, 6-(6-acryloyl-2,6-diazaspiro[3.3]heptan-2-yl)-3-fluoro-2-(5-methyl-1H-indazol-4-yl)benzonitrile]	+ (+ indicates binding activity greater than 0% and up to 50%)
C=CC(=O)N1CC2(CCN(c3cc(OCCCN(C)C)c(F)c(-c4c(C)ccc5[nH]ncc45)c3C#N)CC2)C1 [Compound I-113, 6-(2-acryloyl-2,7-diazaspiro[3.5]nonan-7-yl)-4-(3-(dimethylamino)propoxy)-3-fluoro-2-(5-methyl-1H-indazol-4-yl)benzonitrile]	+ (+ indicates binding activity greater than 0% and up to 50%)
